The nature of the data set: Oral absorption of Ibandronate in rats (urine Ibandronate, 16 h collection, GC/MS). Type of data set: in vivo, male Sprague-Dawley rats. The settings on record: oral gavage, rat, urine 0-16 h post-dosing. How it is done:
Oral absorption studies were performed in rats to evaluate the delivery of the bisphosphonate, Ibandronate, when co-administered with a delivery agent compound of the present invention. Sprague-Dawley rats were administered Ibandronate alone or in combination with a delivery agent compound by oral gavage. Urine samples were collected up to 16 hours post-dosing for Ibandronate quantitations. […]
Urine Ibandronate levels from treated rats were determined using a GC/MS method with a standard calibration range of 0–2000 ng/mL and a limit of quantitation (LOQ) of 2.5 ng/ml. Quality control (QC) samples were prepared fresh daily and were analyzed with samples from treated rats. […]
The amount of Ibandronate excreted in the urine is the dose response and was plotted as a straight line against the Ibandronate dose (linear dose-response relationship was assumed). The relative potency of the four delivery agent-containing Ibandronate formulations were calculated against the control formulations (without delivery agent) using a Student's t-test. […]

Each structure is given as a SMILES string.

In the case of `CCCCCN(C)CCC(O)(P(=O)(O)O)P(=O)(O)O` [Ibandronate], the “Mean urine Ibandronate concentration” value (Ibandronate 5 mg/kg alone) is recorded as 426.8 and the “Mean urine Ibandronate concentration” value (Ibandronate 15 mg/kg alone) turned out to be 4157.5.
